The structures appear in SMILES notation. Several values for one entry are separate records, joined by “and”; a condition that tells them apart may be missing. Equal values may be shown once. Read-outs that look alike come from different tables or passages of the source.

This is an account of results in patent US5061703A, “Adamantane derivatives in the prevention and treatment of cerebral ischemia” (priority 1989, dated 1991).

For data set [1], the system named is electrically induced convulsions. Nature of the data set: Anticonvulsive Effect (supermaximum electroshock test in mice). Type of data set: in vivo, mouse. The conditions noted are these: for ED50 / Anticonvulsive action (score), Mean: i.p.; for ED50: electroshock 40 min after application, estimated according to Litchfield and Wilcoxon; for Anticonvulsive action (score): i.p., 4, 12, 36, 108 and 324 mg/kg, protected animals added over all dosages, maximum = 25, individual scores; for Anticonvulsive action (score), Mean: mean of scores, maximum = 25. Here is the method:
4, 12, 36, 108 and 324 mg/kg of the test substance is administered to mice by the intraperitoneal route (5 animals per dose). The supermaximum electroshock test is applied forty (40) minutes after application of the substance to investigate the anti-convulsive potential of the substance. The protected animals are added up over all dosages (score; maximum=25 animals).

For another data set, the system named is NMDA receptor channel. As to the kind of experiment: Blocking of NMDA Receptor Channels (patch-clamp, cultivated spinal marrow neurons). The conditions noted are these: 20 μM NMDA and 6 μM of adamantane derivative; current integrated 20 sec; means ± SEM. Type of data set: cell-based, mouse. Here is the method: In the following test it is shown that the compounds of formula (I) according to the invention are as effective as PCP in blocking the NMDA receptor channel.
In the patch-clamp experiment, the current flowing through NMDA-activated membrane channels of cultivated spinal marrow neurons (mouse) is measured (Hamill et al 1981, Pflugers Arch. 312: 85-100). After application of 20 μM NMDA, the current signal of the cell is integrated for 20 sec. and recorded as a control answer (Ac). During succeeding application of 20 μM NMDA and 6 μM of an adamantane derivative, the intensity of the substance effect can be determined as a relative change of the control answer (A/Ac -A=test answer).

The target in data set [2] is MK-801 binding site of the NMDA receptor channel. As to the kind of experiment: Displacement of [3H] MK-801 Binding in Human Brain Tissue (frontal cortex homogenates). Particulars: [3H] MK-801 (3 nM), mean of triplicate experiments. Here is the method:
MK-801 binds to the ion channel associated with the NMDA receptor, as well as TCP does. This binding site is thought to mediate the neuroprotective effects of non-competitive NMDA-antagonists.
We have investigated whether the adamantane derivatives of the present invention are active at the MK-801 binding site. Tissue from frontal cortex was taken from patients at autopsy and homogenates were prepared. Inhibition of specific [^3 H] MK-801 binding (3 nM) by the test compounds was determined (see e.g. Kornhuber et al. 1989, Eur. J. Pharmacol. 166: 589-590).
wherein Ki is the inhibition constant and nM is nanomoles per liter. Mean values from triplicate experiments are given ± S.E.M.
The inhibition constant Ki is approximately equal to the concentration of the adamantane in nM required to displace 50% of the MK-801 specifically bound to the receptor.

Another data set deals with NMDA-induced mortality. Nature of the data set: Protection Against NMDA-Induced Mortality (mice). Type of data set: in vivo, mouse. The conditions noted are these: 200 mg/kg NMDA i.p. Here is the method:
It is well known that, subsequent to cerebral ischemia, glutamate and aspartate levels increase massively in the brain. These excitatory aminoacids overstimulate the NMDA-subtype of the glutamate receptor thus leading to delayed neuronal death. A similar pathophysiological situation is obtained when mice are administered intraperitoneally with 200 mg/kg NMDA. This high dose will eventually cause 100% mortality in the animals (Leander et al. 1984, Brain Res. 448; 115-120).

Data set [3] concerns brain cells after cerebral ischemia. Particulars: rats; Sauer et al. 1988; cited from earlier work.
The test system of data set [4] is neurons in the CA1-CA4 region of the hippocampus. Nature of the data set: Protection Against Cerebral Ischemia (carotid occlusion in rats, hippocampal histology). Type of data set: in vivo, rat. The conditions noted are these: for damaged neurons, area CA1 / damaged neurons, area CA3 / damaged neurons, area CA4: single administration 1 h prior to ischemia, ± SEM. Here is the method: Both carotid arteries are occluded in rats for 10 minutes. […] The ischemia is terminated by opening the carotids and reinfusion of the withdrawn blood. After seven days the brains of the test animals are histologically examined for cellular changes in the CA1-CA4 region of the hippocampus, and the percentage of destroyed neurons is determined.

For data set [5], the system named is MK-801 binding site of the NMDA receptor channel. Particulars: as reported in the foregoing publication (Kornhuber et al. 1989); cited from earlier work.
Data set [6] deals with NMDA receptor-associated ionic channel (PCP/TCP binding site). As to the kind of experiment: Displacement of TCP Binding (3H-TCP, membrane preparation of rat cortex). The method, then: Phencyclidine (PCP), a known NMDA antagonist, binds to the NMDA receptor-associated ionic channel and blocks ionic transport (Garthwaite & Garthwaite, Neurosci. Lett. 83, 1987, 241-246).
The interaction between compounds of formula (I) and the PCP bond is studied in the following. In this test ^3 H-TCP, a PCP analogue, is used.
A membrane preparation of rat cortex is incubated with ^3 H-TCP which is an analogue of phencyclidine (PCP) (Quirion & Pert 1982, Eur. J. Pharmacol. 83:155). The interaction with the TCP binding is assessed for test compound no. 1 (1-amino-3,5-dimethyl adamantane) in a competitive experiment. […] The conclusion can be drawn that compound no. 1 binds to NMDA receptor channels at the same site as the NMDA antagonist PCP.

Where [7] appears, read: Mus musculus, ip, 40 min, read-out: ED50.

For the compound `C[C@]12N[C@H](Cc3ccccc31)c1ccccc12` [MK-801, 5-methyl-10,11-dihydro-5H-dibenzo[a,d]cycloheptene-5,10-imine, reference compound], the 50% effective dose (ED50) in data set [1] (setting [7]) was less than 1 mg/kg. In addition, in data set [1] (40 min), the “Anticonvulsive action (score)” value amounted to 25 and the “Anticonvulsive action (score), Mean” value came to 25.0. In the data set on NMDA receptor channel, the 1-A/Ac is 0.60 ± 0.05.

`CNC12CC3CC(C)(CC(C)(C3)C1)C2` [compound 5, 1-N-methylamino-3,5-dimethyl adamantane]: the inhibition constant (Ki) in data set [2] was found to be 1.61 µM. In addition, in the data set on NMDA-induced mortality (25 mg/kg), the “Protected Animals” value is listed as 5/8. Also, the ED50 in data set [1] (setting [7]) is 13 mg/kg. For the same compound, in data set [1] (40 min), the “Anticonvulsive action (score)” value is listed as 17 and the “Anticonvulsive action (score), Mean” value turned out to be 17.0. Further, the 1-A/Ac with NMDA receptor channel turned out to be 0.56 ± 0.07.

On to `c1ccc(C2(N3CCCCC3)CCCCC2)cc1` [PCP, Phencyclidine, reference compound], for which the “prevention of destruction of brain cells after cerebral ischemia (in words)” value in data set [3] was “prevent the destruction of brain cells after cerebral ischemia in rats”. Moreover, in data set [1] (40 min), the “Anticonvulsive action (score)” value stood at 19 and the “Anticonvulsive action (score), Mean” value is reported as 19.0. For the same compound, in data set [1], the ED50 is recorded as 9 mg/kg. The same compound came in with a 1-A/Ac with NMDA receptor channel of 0.50 ± 0.04.

Take `CCC12CC3(C)CC(C)(CC(N)(C3)C1)C2` [compound 8, 1-amino-3,5-dimethyl-7-ethyl adamantane]: in the data set with NMDA receptor channel, the 1-A/Ac worked out at 0.50 ± 0.03.

Consider `CC(C)C12CC3CC(CC(N)(C3)C1)C2` [compound 3, 1-amino-3-isopropyl adamantane], for which the affinity in data set [2] corresponds to a Ki of 0.598 µM. In addition, the “Protected Animals” value is given as 4/8 with NMDA-induced mortality (25 mg/kg) and 6/8 in the data set on NMDA-induced mortality (50 mg/kg). In the data set with NMDA receptor channel, this compound displayed a 1-A/Ac of 0.58 ± 0.07.

With `CCC12CC3CC(N)(C1)CC(CC)(C3)C2` [compound 4, 1-amino-3,5-diethyl adamantane], the Ki in data set [2] worked out at 0.189 µM. In addition, in the data set on NMDA-induced mortality (25 mg/kg), the “Protected Animals” value is reported as 5/8. In addition, in the data set with NMDA-induced mortality (50 mg/kg), the “Protected Animals” value is 7/8. Further, in data set [1] (setting [7]), the ED50 was 24 mg/kg. Besides, in data set [1] (40 min), the “Anticonvulsive action (score)” value is 16 and 11; the “Anticonvulsive action (score), Mean” value was 14.3. In the data set with NMDA receptor channel, the 1-A/Ac was 0.50 ± 0.11.

For the compound `CCC12CC3CC(CC(N)(C3)C1)C2` [compound 2, 1-amino-3-ethyl adamantane], the ED50 in data set [1] (setting [7]) is 30 mg/kg. Moreover, in data set [1] (40 min), the “Anticonvulsive action (score)” value is 15 and 14 and 12; the “Anticonvulsive action (score), Mean” value is given as 13.7. In addition, in the data set on NMDA receptor channel, the 1-A/Ac was 0.44 ± 0.08.

`NC12CC3CC(C1)CC(C1CCCCC1)(C3)C2` [compound 7, 1-amino-3-cyclohexyl adamantane] had a 1-A/Ac in the data set with NMDA receptor channel of 0.25 ± 0.04.

Consider `CC12CC3CC(C)(C1)CC(N)(C3)C2` [Compound no. 1, 1-amino-3,5-dimethyl adamantane], for which the “damaged neurons, area CA1” value in data set [4] (5 mg/kg (n = 5)) is given as 83.0 ± 2.2%; in data set [4] (20 mg/kg (n = 6), **p < 0.01 (U test)) it was 53.1 ± 6.1%. Also, the “damaged neurons, area CA3” value is 7.3 ± 1.8% in data set [4] (5 mg/kg (n = 5)) and 2.7 ± 1.0% in data set [4] (20 mg/kg (n = 6)). The “damaged neurons, area CA4” value in data set [4] (5 mg/kg (n = 5)) stood at 3.7 ± 1.7%; in data set [4] (20 mg/kg (n = 6)), 0.6 ± 0.3%. Besides, in data set [4] (pre-ischemic application of 20 mg/kg, rat hippocampus), the “reduction of post-ischemic neuronal brain damage in the CA1 region (in words)” value is listed as “statistically significant”. Further, the “physiological parameters (e.g. blood pressure, body temperature)” value in data set [4] (rats, during ischemia test) is “not affected by the treatment”. In addition, the figures for the “Protected Animals” value in the data set with NMDA-induced mortality (10 mg/kg), in the data set on NMDA-induced mortality (25 mg/kg) and in the data set on NMDA-induced mortality (50 mg/kg) were 3/8, 6/8 and 8/8, respectively. Also, the “potency compared with thirteen other clinically-used and centrally-acting drugs (in words)” value in data set [5] is recorded as “most potent compound”. The 50% effective dose (ED50) in data set [1] (setting [7]) was 16 mg/kg. Besides, the “Anticonvulsive action (score)” value in data set [1] (40 min) is 18 and 16 and 15. Also, in data set [1] (40 min), the “Anticonvulsive action (score), Mean” value is given as 16.3. In the data set on NMDA receptor channel, this compound yielded a 1-A/Ac of 0.66 ± 0.05. In addition, the IC50 in data set [6] (membrane preparation of rat cortex, competitive experiment) worked out at 0.089 µM. Moreover, in data set [6] (rat cortex membranes), the “displacement of TCP from the bond (in words)” value is given as “very effective”.

`CCNC12CC3CC(C)(CC(C)(C3)C1)C2` [compound 6, 1-N-ethylamino-3,5-dimethyl adamantane] gave a 1-A/Ac in the data set with NMDA receptor channel of 0.38 ± 0.05.
